From patent US12385013B2, “Differentiation of pancreatic endocrine cells” (Vertex Pharmaceuticals Incorporated, priority 2020, dated 2025)

Tests used:
[1] = system: S5c cells differentiated from human stem cells; assay: Flow cytometry of NKX6.1/ISL1 at S5c; assay type: cell-based; conditions: for effect on alpha cells (ISL1-positive/NKX6.1-negative) / effect on sc-EC cells (NKX6.1-positive/ISL-negative): PDBU 0.5 μM or TPPB 0.1 μM on S4d5, S5d1, S5d2
Experimental: In one experiment, effect of application of PDBU and gamma secretase inhibitor, XXI, was tested. In this experiment, three differentiation conditions were examined and compared: Version A protocol; Version B; Version B+XXI (both PDBU and XXI was applied from S4d5 to S5d2, and XXI continued to be applied throughout S5). FIG. 10B summarizes the percentages of ISL1-positive cells and ISL1-negative cells at S5c generated via different protocols, as measured by flow cytometry (exemplified in FIG. 10A). As shown in the figure, combined PKC activation and gamma secretase inhibition starting during S4 led to robust induction of ISL1-positive cells from about 65% to higher than 90%, whereas PKC activation alone led to about 80% ISL1-positive cells.
(§1) In another experiment, the effect of two different PKC activators on enterochromaffin cells and alpha cells was examined. In this experiment, three differentiation conditions were examined and compared: Version A protocol; Version A with PDBU applied at 0.5 μM on days S4d5, S5d1, and S5d2 (VA+PDBU); and Version A with ((2S,5S)-(E,E)-8-(5-(4-(Trifluoromethyl)phenyl)-2,4-pentadienoylamino)benzolactam) at 0.1 μM on days S4d5, S5d1, and S5d2 (VA+TPPB). FIG. 11B summarizes the percentages of NKX6.1-positive/ISL-negative cells and ISL1-positive/NKX6.1-negative cells at S5c generated via the different protocols, as measured by flow cytometry (exemplified in FIG. 11A).

[2] = system: cells differentiated from human stem cells; assay: Yield of total cells; assay type: cell-based
Experimental: as §1

EZH2 = EZH2 (Homo sapiens, UniProt Q15910); conditions: cited from earlier work
Sequence of EZH2 (Q15910 whole entry, species assumed): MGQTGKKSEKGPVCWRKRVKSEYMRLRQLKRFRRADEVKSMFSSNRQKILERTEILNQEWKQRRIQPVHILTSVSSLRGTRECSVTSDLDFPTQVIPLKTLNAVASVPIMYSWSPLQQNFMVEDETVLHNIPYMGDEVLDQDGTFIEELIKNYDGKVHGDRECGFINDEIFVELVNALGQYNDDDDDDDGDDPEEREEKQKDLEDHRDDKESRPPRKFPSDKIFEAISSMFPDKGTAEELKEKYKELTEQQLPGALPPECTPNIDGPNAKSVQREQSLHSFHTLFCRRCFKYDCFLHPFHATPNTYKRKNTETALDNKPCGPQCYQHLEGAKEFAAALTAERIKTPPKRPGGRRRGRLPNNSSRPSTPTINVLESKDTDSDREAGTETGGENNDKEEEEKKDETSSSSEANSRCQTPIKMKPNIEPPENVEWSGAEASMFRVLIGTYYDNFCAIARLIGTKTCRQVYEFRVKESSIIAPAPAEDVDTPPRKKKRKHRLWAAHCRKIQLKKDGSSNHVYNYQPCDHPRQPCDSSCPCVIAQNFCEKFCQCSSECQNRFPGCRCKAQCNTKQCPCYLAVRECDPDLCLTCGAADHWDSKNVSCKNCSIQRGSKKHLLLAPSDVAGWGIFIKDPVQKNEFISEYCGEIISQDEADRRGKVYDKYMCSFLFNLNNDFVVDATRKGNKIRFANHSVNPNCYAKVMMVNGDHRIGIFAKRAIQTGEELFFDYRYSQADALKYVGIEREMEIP
Sequence of EZH2 (O75530 whole entry partner, species assumed): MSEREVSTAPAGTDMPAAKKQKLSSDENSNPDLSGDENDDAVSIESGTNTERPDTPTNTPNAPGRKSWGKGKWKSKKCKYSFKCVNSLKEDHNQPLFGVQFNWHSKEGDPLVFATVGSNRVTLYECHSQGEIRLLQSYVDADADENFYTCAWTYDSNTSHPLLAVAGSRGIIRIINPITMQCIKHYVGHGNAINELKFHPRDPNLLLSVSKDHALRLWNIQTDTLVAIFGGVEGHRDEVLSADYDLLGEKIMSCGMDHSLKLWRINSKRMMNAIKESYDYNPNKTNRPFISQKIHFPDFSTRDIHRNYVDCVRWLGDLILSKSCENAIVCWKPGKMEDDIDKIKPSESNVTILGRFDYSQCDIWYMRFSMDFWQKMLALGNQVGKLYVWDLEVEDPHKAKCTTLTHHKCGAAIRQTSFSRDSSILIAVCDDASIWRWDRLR
Sequence of EZH2 (Q15022 whole entry partner, species assumed): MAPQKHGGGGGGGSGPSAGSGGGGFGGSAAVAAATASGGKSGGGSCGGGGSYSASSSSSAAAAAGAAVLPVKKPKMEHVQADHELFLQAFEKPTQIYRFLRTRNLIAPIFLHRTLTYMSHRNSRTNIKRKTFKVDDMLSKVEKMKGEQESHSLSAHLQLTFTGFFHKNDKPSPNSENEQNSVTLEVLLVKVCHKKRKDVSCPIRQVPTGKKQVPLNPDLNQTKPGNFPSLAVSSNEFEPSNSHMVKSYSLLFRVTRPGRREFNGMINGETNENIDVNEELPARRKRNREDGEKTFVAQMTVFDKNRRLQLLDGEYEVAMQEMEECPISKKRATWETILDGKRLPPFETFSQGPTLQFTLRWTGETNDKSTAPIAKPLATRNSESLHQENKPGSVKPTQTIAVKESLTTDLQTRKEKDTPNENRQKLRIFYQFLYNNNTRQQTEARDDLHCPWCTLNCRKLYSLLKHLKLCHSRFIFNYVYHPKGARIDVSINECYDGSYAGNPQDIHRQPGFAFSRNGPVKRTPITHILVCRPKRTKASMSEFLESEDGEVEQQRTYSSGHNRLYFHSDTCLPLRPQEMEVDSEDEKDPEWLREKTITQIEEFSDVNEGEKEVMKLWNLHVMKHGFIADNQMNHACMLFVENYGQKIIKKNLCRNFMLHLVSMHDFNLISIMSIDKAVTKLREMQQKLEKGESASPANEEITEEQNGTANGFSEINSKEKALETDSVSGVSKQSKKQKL

[3] = system: Stage 6 cells differentiated from human stem cells; assay: Flow cytometry of Stage 6 endocrine cell populations (C-peptide/VMAT1, GCG/SST); assay type: cell-based
Experimental: (§2) Both Version A and Version B protocols are 6-stage stepwise protocols that share similar reagents and treatment timing. With Version A protocols, stem cells were treated with reagents in the following consecutive orders during the first five stages: Stage 1 (S1), Activin-A for 3 days and also CHIR99021 for the first 24 hr; Stage 2 (S2), KGF for 3 days; Stage 3 (S3), KGF, PDBU, Sant-1, retinoic acid (RA), Activin A, and Thiazovivin for 2 days, and also DMH-1 for the first day; Stage 4 (S4), KGF, Sant-1, Thiazovivin, Activin A, and RA for 6 days; Stage 5 (S5), XXI, Alk5i, GC-1, LDN-193189, Thiazovivin, Staurosporine, and DZNEP for 7 days, and also RA, Sant-1, and Betacellulin for the first 2 days. In Version B protocols, one difference from Version A protocols is that the cells were supplemented with PDBU from day 5 of Stage 4 (S4d5) to day 2 of Stage 5 (S5d2). In one experiment, 500 nM of PDBU was used to treat the cells during S4d5 to S5d2.
In one experiment, four different exemplary Stage 6 treatment paradigms were also tested at S6 in combination with the first five stages of Version A or Version B protocols. Briefly, i) with S6-a paradigm, S5c cells were cultured in DMEM/F12 medium containing 1% HSA for 7-14 days; ii) with S6-b paradigm, S5c cells were cultured in MCDB131 medium containing 0.05% HSA and the following supplements (per 1 L MCDB131): 0.44 g Glucose, 1.23 g NaHCO3, 0.044 g Vitamin C, 10 ml Glutamax, and 5 ml ITS-x; iii) with S6-c paradigm, S5c cells were cultured in MCDB131 medium containing 0.05% HSA and vitamin C for 7-14 days, during which the cells were treated with 10 μM Alk5i, 1 μM GC-1, 100 nM LDN-193189, 2.5 μM Thiazovivin, 3 nM SSP, and 100 nM DZNEP for the first four days; iv) with S6-d paradigm, S5c cells were cultured in MCDB131 medium (no glutamine base media) containing 0.05% HSA, ITS-X, vitamin C, and 4 mM Gln, as well as […] Alk5i, 1 μM GC-1, 100 nM LDN-193189, 2.5 μM Thiazovivin, 3 nM SSP, and 100 nM DZNEP, for four days, followed by culturing in MCDB131 medium (no glutamine base media) containing 0.05% HSA, ITS-X, vitamin C, and 4 mM Gln with no additional factors for additional 3-10 days.
As shown in the figure, with Version A protocols, the percentage of C-peptide-positive, VMAT1-negative cells on S6d9 or S6d14 were all around 35%, except for VA/S6-a and VA/S6-d on S6d9 (both around 40%), whereas with Version B protocols, the percentage of C-peptide-positive, VMAT1-negative cells was from 45% to 55% on S6d9, and around 45% on S6d14.

[4] = system: S5c cells differentiated from human stem cells; assay: SOX9 expression at the end of S5; assay type: cell-based; conditions: compared to Version A protocols
[5] = system: Stage 6 cells differentiated from human stem cells; assay: Insulin content of generated cells; assay type: cell-based; conditions: comparison between protocols
[6] = system: S5c cells differentiated from human stem cells; assay: Single-cell RNA sequencing of S5c cells after stem cell differentiation; assay type: cell-based; conditions: compared to Version A protocol, PDBU S4d5 to S5d2
Experimental: as §2

S6d13 cells = assay: In vitro glucose-stimulated insulin secretion response; assay type: cell-based, human
Text: In one experiment, in vitro glucose-stimulated insulin secretion response of S6d13 cells generated by Version A and Version B protocols was examined.

With `CC(C)[C@H]1C(=O)N[C@H](CO)Cc2cc(NC(=O)/C=C/C=C/c3ccc(C(F)(F)F)cc3)ccc2N1C` [VA/TPPB, ((2S,5S)-(E,E)-8-(5-(4-(Trifluoromethyl)phenyl)-2,4-pentadienoylamino)benzolactam)] the “effect on alpha cells (ISL1-positive/NKX6.1-negative)” value [1] was “increasing alpha cells”, the “effect on sc-EC cells (NKX6.1-positive/ISL-negative)” value [1] was “similarly effective as VA/PDBU at reducing sc-EC cells” and the “increase in yield of total cells as compared to VA/PDBU” value ([2]; TPPB 0.1 μM on S4d5, S5d1, S5d2) was “more than 2 fold”.

In the case of `CCCc1cc(C)[nH]c(=O)c1CNC(=O)c1cc(-c2ccc(N3CCN(C(C)C)CC3)nc2)cc2c1cnn2C(C)C` [UNC1999], the “selectivity relative to GSK126” value (EZH2) is given as “less selective”.

For `C[C@H](NC(=O)Cc1cc(F)cc(F)c1)C(=O)N[C@H]1N=C(c2ccccc2)c2ccccc2N(C)C1=O` [XXI], the cell yield ([2]; XXI added to VA/TPPB at days S4d5, S5d1, S5d2) was “reduction in in cell yield”.

In the case of `CC[C@H](C)n1cc(C)c2c(C(=O)NCc3c(C)cc(C)[nH]c3=O)cc(-c3ccc(N4CCNCC4)nc3)cc21` [GSK126], the “selectivity for EZH2 over EZH1” value (EZH2) is given as 150 fold.

For `CCCC(=O)O[C@@H]1[C@@H](C)[C@@]2(O)[C@@H](C=C(CO)C[C@]3(O)C(=O)C(C)=C[C@@H]23)[C@@H]2C(C)(C)[C@]12OC(=O)CCC` [Version B, phorbol 12,13-dibutyrate], the “effect on alpha cells (ISL1-positive/NKX6.1-negative)” value [1] was “increasing alpha cells”, the “effect on sc-EC cells (NKX6.1-positive/ISL-negative)” value [1] was “reducing sc-EC cells” and the “percentage of ISL1-positive cells” value ([1]; Version A about 65%) was “about 80%”. For the same molecule, the “percentage of EC cells (VMAT1+/C-peptide−)” value ([3]; S6d9) was “less than 20%”, the “percentage of δ cells (SST+/GCG−)” value ([3]; S6d9, listed as vB/S6-a) was “around 5%” and the “percentage of δ cells (SST+/GCG−)” value ([3]; S6d9, listed as vB/S6-b) was “around 7%”. The “percentage of δ cells (SST+/GCG−)” value ([3]; S6d9, listed as vB/S6-d) was “around 8%”, the “percentage of C-peptide-positive, VMAT1-negative cells” value ([3]; S6d14) was “around 45%” and the “percentage of EC cells (VMAT1+/C-peptide−)” value ([3]; S6d14) was “less than 20%”. For the same molecule, the “percentage of α cells (GCG+/SST−)” value ([3]; S6d14, listed as vB/S6-a) was “around 22%”, the “percentage of δ cells (SST+/GCG−)” value ([3]; S6d14, listed as vB/S6-a) was “around 5%” and the “percentage of α cells (GCG+/SST−)” value ([3]; S6d14, listed as vB/S6-b) was “around 22%”. For the same molecule, the “percentage of δ cells (SST+/GCG−)” value ([3]; S6d14, listed as vB/S6-b) was “around 5%”, the “percentage of α cells (GCG+/SST−)” value ([3]; S6d14, listed as vB/S6-c) was “around 15%” and the “percentage of α cells (GCG+/SST−)” value ([3]; S6d14, listed as vB/S6-d) was “around 15%”. The “percentage of δ cells (SST+/GCG−)” value ([3]; S6d14, listed as vB/S6-d) was “around 8%”, the “cells expressing SOX9” value [4] was “increased cells expressing SOX9” and the “insulin content in cells” value [5] was “comparable”. For the same molecule, the “percentage of cells expressing CHGA” value [6] was “comparable percentage”, the “percentage of cells expressing DDC (marker of enterochromaffin cells)” value [6] was “much reduced percentage” and the “percentage of cells expressing ISL1” value [6] was “comparable percentage”. For the same molecule, the “insulin secretion in response to 20 mM glucose challenge as compared to 2.8 mM glucose challenge” value (S6d13 cells) was “no clear increase in insulin secretion” and the “responsiveness to glucose challenges (GSIS)” value (S6d13 cells) was “relatively low responsiveness to glucose challenges”.
